The text below walks through data of patent US20240150293A1, “SPIROCYCLOHEXANE DERIVATIVES, PHARMACEUTICAL COMPOSITIONS CONTAINING THEM AND THEIR USES AS ANTI-APOPTOTIC INHIBITORS” (LES LABORATOIRES SERVIER, priority 2021, published 2024).

For one assay, the target named is Mcl-1 protein (UniProtKB Q07820) (Homo sapiens (Human), UniProt Q07820). As to the kind of experiment: Inhibition of Mcl-1 by the fluorescence polarisation assay (Example A, Method A). The settings on record: fluorescence polarization assay. In kind it is binding. Summed up:
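Protein (5 nM) and fluorescein-tagged peptide tracer (1 nM) incubated with 11-point compound series for 2 h at room temperature in HEPES/NaCl/Tween 20 buffer, pH 7.4, 5% DMSO. Displacement read as decrease in polarisation; IC50 fitted by 4-parameter logistic, converted to Ki (cKi or eKi).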
Background: In fluorescence polarisation assays a small probe gives low polarisation when free and higher when bound to something large.

Assay [1] concerns H929 multiple myeloma tumor line. Nature of the assay: In vitro cytotoxicity, MTT assay (Example B, Method A). In kind it is cell-based. The following applies: H929 cells, 48 hours exposure, read-out: C50. The protocol:
The cytotoxicity studies were carried out on the H929 multiple myeloma tumor line.
The cells are distributed onto microplates and exposed to the test compounds for 48 hours. The cell viability is then quantified by a colorimetric assay, the Microculture Tetrazolium Assay (Carmichael et al, Cancer Res. 1987, 47, 939-942).
The results are expressed in C50 which means concentration corresponding to […] of effect/inhibition.
For orientation: Tetrazolium dyes change colour on reduction, which living cells bring about.

pIC50, pKi: −log10 of the molar value. Where two headings read alike, the source gives them in different places.

Usually pKi stands for the negative decadic logarithm of the Ki, by convention in mol/L.

Mcl-1 protein, sequence (Q07820 whole entry): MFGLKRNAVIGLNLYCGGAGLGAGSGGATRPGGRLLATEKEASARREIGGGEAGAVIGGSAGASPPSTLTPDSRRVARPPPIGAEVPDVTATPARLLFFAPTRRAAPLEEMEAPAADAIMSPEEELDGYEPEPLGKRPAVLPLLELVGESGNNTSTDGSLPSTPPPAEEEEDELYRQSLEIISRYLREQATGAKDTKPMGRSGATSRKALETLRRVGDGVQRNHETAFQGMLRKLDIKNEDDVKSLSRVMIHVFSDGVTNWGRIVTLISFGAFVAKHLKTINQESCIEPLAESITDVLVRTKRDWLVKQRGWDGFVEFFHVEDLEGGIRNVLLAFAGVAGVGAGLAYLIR

For the molecule `COc1ccc2c(c1)[C@]1(CC[C@@](Nc3cccc(Cl)c3)(C(=O)O)CC1)C(c1cccc(Oc3ccccc3)c1)C2` (single isomer, unassigned) [Example 378, (1r,4r)-4-(3-chloroanilino)-6′-methoxy-2′-(3-phenoxyphenyl)-2′,3′-dihydrospiro[cyclohexane-1,1′-indene]-4-carboxylic acid], the pKi at Mcl-1 protein is 7.20. In assay [1] (Homo sapiens, NCI-H929, 48 h), the pIC50 was 5.03.
For `COCCOc1ccc2c(c1)[C@]1(CC[C@@](Nc3cccc(Cl)c3)(C(=O)O)CC1)C(c1cccc(Oc3ccccc3)c1)C2` (single isomer, unassigned) [Example 384, (1r,4r)-4-(3-chloroanilino)-6′-(2-methoxyethoxy)-2′-(3-phenoxyphenyl)-2′,3′-dihydrospiro[cyclohexane-1,1′-indene]-4-carboxylic acid], on Mcl-1 protein, the pKi was 7.23. Further, in assay [1] (Homo sapiens, NCI-H929, 48 h), the pIC50 is 4.94.
The like results for `CC(C)COc1ccc2c(c1)[C@]1(CC[C@@](Nc3cccc(Cl)c3)(C(=O)O)CC1)C(c1cccc(Oc3ccccc3)c1)C2` (single isomer, unassigned) [Example 385, (1r,4r)-4-(3-chloroanilino)-6′-(2-methylpropoxy)-2′-(3-phenoxyphenyl)-2′,3′-dihydrospiro[cyclohexane-1,1′-indene]-4-carboxylic acid] were, in that order, 6.09 and 4.72.
The like results for `CCOc1ccc2c(c1)[C@]1(CC[C@@](Nc3cccc(Cl)c3)(C(=O)O)CC1)C(c1cccc(Oc3ccccc3)c1)C2` (single isomer, unassigned) [Example 386, (1r,4r)-4-(3-chloroanilino)-6′-ethoxy-2′-(3-phenoxyphenyl)-2′,3′-dihydrospiro[cyclohexane-1,18′-indene]-4-carboxylic acid] were, in that order, 6.79 and 5.10.
The like results for `CC(C)Oc1ccc2c(c1)[C@]1(CC[C@@](Nc3cccc(Cl)c3)(C(=O)O)CC1)C(c1cccc(Oc3ccccc3)c1)C2` (single isomer, unassigned) [Example 387, (1r,4r)-4-(3-chloroanilino)-2′-(3-phenoxyphenyl)-6′-[(propan-2-yl)oxy]-2′,3′-dihydrospiro[cyclohexane-1,1′-indene]-4-carboxylic acid] were, in that order, 6.66 and 5.02.
With `CC(C)C(COc1ccnc2ccsc12)CC1Cc2ccccc2[C@]12CC[C@@](Nc1cccc(Cl)c1)(C(=O)O)CC2` (single isomer, unassigned) [Example 522, (1r,4r)-4-(3-chloroanilino)-2′-(3-methyl-2-{[(thieno[3,2-b]pyridin-7-yl)oxy]methyl}butyl)-2′,3′-dihydrospiro[cyclohexane-1,1′-indene]-4-carboxylic acid], the pKi at Mcl-1 protein was 5.20. Also, in assay [1] (Homo sapiens, NCI-H929, 48 h), the pIC50 was 4.77.
The like results for `CC(C)C(COc1cccnc1)CC1Cc2ccccc2[C@]12CC[C@@](Nc1cccc(Cl)c1)(C(=O)O)CC2` (single isomer, unassigned) [Example 526, (1r,4r)-4-(3-chloroanilino)-2′-(3-methyl-2-{[(pyridin-3-yl)oxy]methyl}butyl)-2′,3′-dihydrospiro[cyclohexane-1,1′-indene]-4-carboxylic acid] were, in that order, 5.73 and 4.52.
For `CC(C)C(COc1cccnc1)CC1Cc2ccccc2[C@]12CC[C@@](Nc1cccc(Cl)c1)(C(=O)O)CC2` (single isomer, unassigned) [Example 527, (1r,4r)-4-(3-chloroanilino)-2′-(3-methyl-2-{[(pyridin-3-yl)oxy]methyl}butyl)-2′,3′-dihydrospiro[cyclohexane-1,1′-indene]-4-carboxylic acid], on Mcl-1 protein, the pKi was 5.05. The pIC50 in assay [1] is 4.79.
Take `CC(C)C(COc1cccnc1)CC1Cc2ccccc2[C@]12CC[C@@](Nc1cccc(Cl)c1)(C(=O)O)CC2` (single isomer, unassigned) [Example 528, (1r,4r)-4-(3-chloroanilino)-2′-(3-methyl-2-{[(pyridin-3-yl)oxy]methyl}butyl)-2′,3′-dihydrospiro[cyclohexane-1,1′-indene]-4-carboxylic acid]: the pKi on Mcl-1 protein was 5.48. For the same molecule, the pIC50 in assay [1] is 4.52.
The like results for `CC(C)C(COc1ccccc1)CC1Cc2ccccc2[C@]12CC[C@@](Nc1cccc(Cl)c1)(C(=O)O)CC2` (single isomer, unassigned) [Example 529, (1r,4r)-4-(3-chloroanilino)-2′-[3-methyl-2-(phenoxymethyl)butyl]-2′,3′-dihydrospiro[cyclohexane-1,1′-indene]-4-carboxylic acid] were, in that order, 5.37 and 4.60.
With `CC(C)C(COc1ccccc1)CC1Cc2ccccc2[C@]12CC[C@@](Nc1cccc(Cl)c1)(C(=O)O)CC2` (single isomer, unassigned) [Example 530, (1r,4r)-4-(3-chloroanilino)-2′-[3-methyl-2-(phenoxymethyl)butyl]-2′,3′-dihydrospiro[cyclohexane-1,1′-indene]-4-carboxylic acid], at Mcl-1 protein, the pKi was 5.69. In addition, the pIC50 in assay [1] (Homo sapiens, NCI-H929, 48 h) is 4.82.
`CC(C)C(COc1ccccc1)CC1Cc2ccccc2[C@]12CC[C@@](Nc1cccc(Cl)c1)(C(=O)O)CC2` (single isomer, unassigned) [Example 531, (1r,4r)-4-(3-chloroanilino)-2′-[3-methyl-2-(phenoxymethyl)butyl]-2′,3′-dihydrospiro[cyclohexane-1,1′-indene]-4-carboxylic acid]: the pKi on Mcl-1 protein is 5.22. For the same molecule, in assay [1], the pIC50 was 4.80.
With `CC(C)C(COc1ccncc1)CC1Cc2ccccc2[C@]12CC[C@@](Nc1cccc(Cl)c1)(C(=O)O)CC2` (single isomer, unassigned) [Example 532, (1r,4r)-4-(3-chloroanilino)-2′-(3-methyl-2-{[(pyridin-4-yl)oxy]methyl}butyl)-2′,3′-dihydrospiro[cyclohexane-1,1′-indene]-4-carboxylic acid], the pKi at Mcl-1 protein was 6.09. In addition, the pIC50 in assay [1] is 4.90.
The like results for `CC(C)C(COc1ccncc1)CC1Cc2ccccc2[C@]12CC[C@@](Nc1cccc(Cl)c1)(C(=O)O)CC2` (single isomer, unassigned) [Example 533, (1r,4r)-4-(3-chloroanilino)-2′-(3-methyl-2-{[(pyridin-4-yl)oxy]methyl}butyl)-2′,3′-dihydrospiro[cyclohexane-1,1′-indene]-4-carboxylic acid] were, in that order, 6.11 and 4.84.
Regarding `CC(C)C(COc1ccncc1)CC1Cc2ccccc2[C@]12CC[C@@](Nc1cccc(Cl)c1)(C(=O)O)CC2` (single isomer, unassigned) [Example 535, (1r,4r)-4-(3-chloroanilino)-2′-(3-methyl-2-{[(pyridin-4-yl)oxy]methyl}butyl)-2′,3′-dihydrospiro[cyclohexane-1,1′-indene]-4-carboxylic acid], the pKi at Mcl-1 protein was 5.64. The pIC50 in assay [1] is 4.52.
Regarding `CC1CCc2nccc(OC[C@H](C)CC3Cc4ccccc4[C@]34CC[C@@](Nc3cccc(Cl)c3)(C(=O)O)CC4)c21` (single isomer, unassigned) [Example 600], the pKi on Mcl-1 protein was 8.37. For the same molecule, the pIC50 in assay [1] (Homo sapiens, NCI-H929, 48 h) is 6.29.
The like results for `O=C1c2ccccc2[C@]2(CC[C@@](Nc3cccc(Cl)c3)(C(=O)O)CC2)N1CCCOc1ccccc1` [Example 34, (1s,4s)-4-(3-chloroanilino)-3′-oxo-2′-(3-phenoxypropyl)-2′,3′-dihydrospiro[cyclohexane-1,1′-isoindole]-4-carboxylic acid] were, in that order, 6.19 and 4.52.
The like results for `O=C(O)[C@]1(Nc2cccc(Cl)c2)CC[C@@]2(CC1)c1ccccc1CN2CCCOc1ccccc1` [Example 35, (1s,4s)-4-(3-chloroanilino)-2′-(3-phenoxypropyl)-2′,3′-dihydrospiro[cyclohexane-1,1′-isoindole]-4-carboxylic acid] were, in that order, 6.48 and 4.52.
As to `O=C(O)C1(Nc2cccc(Br)c2)CCC2(CCc3ccccc32)CC1` (stereo not shown) [Example 57, 4-(3-bromoanilino)-2′,3′-dihydrospiro[cyclohexane-1,1′-indene]-4-carboxylic acid], on Mcl-1 protein, the pKi was 6.03. For the same molecule, the pIC50 in assay [1] (Homo sapiens, NCI-H929, 48 h) was 4.52.
The like results for `O=C(O)[C@]1(Nc2cccc(Br)c2)CC[C@@]2(C=Cc3c(Br)cccc32)CC1` [Example 60, (1r,4r)-4′-bromo-4-(3-bromoanilino)spiro[cyclohexane-1,1′-indene]-4-carboxylic acid] were, in that order, 6.56 and 4.52.
The like results for `COc1ccc2c(c1)[C@]1(CC2)CC[C@](Nc2cccc(Br)c2)(C(=O)O)CC1` [Example 61, (1r,4s)-4-(3-bromoanilino)-6′-methoxy-2′,3′-dihydrospiro[cyclohexane-1,1′-indene]-4-carboxylic acid] were, in that order, 6.45 and 4.52.
The like results for `C[C@@H]1Cc2ccccc2[C@]12CC[C@@](Nc1cccc(Br)c1)(C(=O)O)CC2` [Example 144, (1r,2′R,4R)-4-(3-bromoanilino)-2′-methyl-2′,3′-dihydrospiro[cyclohexane-1,1′-indene]-4-carboxylic acid] were, in that order, 6.74 and 4.52.
With `C[C@H]1Cc2ccccc2[C@]12CC[C@@](Nc1cccc(Br)c1)(C(=O)O)CC2` [Example 145, (1r,2′S,4S)-4-(3-bromoanilino)-2′-methyl-2′,3′-dihydrospiro[cyclohexane-1,1′-indene]-4-carboxylic acid], the pKi on Mcl-1 protein is 6.38. The pIC50 in assay [1] (Homo sapiens, NCI-H929, 48 h) was 4.52.
